Patent EP2168591A1, “Antimicrobial peptides” (Helmholtz Zentrum München Deutsches Forschungszentrum für …, priority 2008, dated 2010)
Read-outs that look alike come from different tables or passages of the source. Non-standard residues stand in square brackets, D forms with d. Residues, ends and D or L forms follow the SMILES beside them. No end group written: not given here.

Assays:
Alternaria alternata = assay type: cell-based; conditions: complete inhibition of spore germination/mycelial growth, OD590nm
Protocol: (§1) In-vitro inhibition assays were performed in sterile flat-bottom 96-well plates (Greiner bio-one, Frickenhausen). […] Spores of fungi were collected by water washes of sporulating cultures grown on 2% malt extract agar and spore concentration was determined by microscopy. The concentration of the spores was adjusted to 1.5-2 x 10^3 spores/ml in 2% malt extract medium and 80 µl of fungal spores were added per well. […] After overnight incubation at room temperature the plate were put on a rotary shaker (300 rpm) for further two days to ensure consistantly growth. Antifungal effects of the peptides were determined by a microplate reader (Alternaria, Fusarium) at OD590nm or by visual screening of the plates (Botrytis, Cladosporium). The lowest peptide concentration leading to complete inhibition of bacterial growth or spore germination/mycelial growth (minimal inhibition concentration, MIC) was determined for each organism-peptide combination. For each peptide concentration two identical inhibition assays were performed. Table 1: Minimal inhibition concentration (MIC) for complete inhibition of bacterial growth or spore germination/mycelial growth.

Botrytis cinerea = assay type: cell-based; conditions: complete inhibition of spore germination/mycelial growth, visual screening
Protocol: as §1

Cladosporium herbarum = assay type: cell-based; conditions: complete inhibition of spore germination/mycelial growth, visual screening
Protocol: as §1

Xanthomonas vesicatoria = tested on: Xanthomonas vesicatoria
Protocol: (§2) In-vitro inhibition assays were performed in sterile flat-bottom 96-well plates (Greiner bio-one, Frickenhausen). Antimicrobial peptides were dissolved in 0.01% acetic acid containing 0.2% BSA (500 µg/ml), filter sterilized and stored at -20°C. For inhibition assays dilutions of peptides ranging from 5 to 200 µg/ml were prepared and 10 µl (antibacterial assay) or 20 µl (antifungal assay) of each concentration was loaded per well.
(§3) Bacteria colonies from overnight agar plate cultures were resuspended into 5ml LB-medium or HPG-medium (OD600nm=0.08-0.1) and diluted into LB-medium/HPG-medium (1:100). 90 µl of this suspension containing about 10^5-10^6 CFU/ml of tested bacteria were added to each well resulting in final peptide concentrations of 0, 0.5, 1, 2, 5, 10, and 20 µg/ml.
(§4) The lowest peptide concentration leading to complete inhibition of bacterial growth or spore germination/mycelial growth (minimal inhibition concentration, MIC) was determined for each organism-peptide combination. For each peptide concentration two identical inhibition assays were performed. […] Table 1: Minimal inhibition concentration (MIC) for complete inhibition of bacterial growth or spore germination/mycelial growth.

[1] = tested on: Pseudomonas syringae pv. tomato
Protocol: as §2, §3, §4

[2] = tested on: Clavibacter michiganensis sub. michiganensis; conditions: complete inhibition of bacterial growth, overnight at 25 °C
Protocol: as §2, §3, §4

[3] = tested on: Pectobacterium carotovorum sub. carotovorum
Protocol: as §2, §3, §4

Pseudomonas corrugata = tested on: Pseudomonas corrugata
Protocol: as §2, §3, §4

[4] = tested on: Pseudomonas syringae pv. syringae
Protocol: as §2, §3, §4

[5] = complete inhibition of bacterial growth, Xanthomonas vesicatoria, overnight at 25 °C
[6] = complete inhibition of bacterial growth, Pseudomonas syringae pv. tomato, overnight at 25 °C
[7] = complete inhibition of bacterial growth, Pectobacterium carotovorum sub. carotovorum, overnight at 25 °C
[8] = complete inhibition of bacterial growth, Pseudomonas corrugata, overnight at 25 °C
[9] = complete inhibition of bacterial growth, Pseudomonas syringae pv. syringae, overnight at 25 °C

| Compound | Minimal inhibition concentration (MIC) (Alternaria alternata) | Minimal inhibition concentration (MIC) (Botrytis cinerea) | Minimal inhibition concentration (MIC) (Cladosporium herbarum) | Minimal inhibition concentration (MIC) (Xanthomonas vesicatoria; [5]) | Minimal inhibition concentration (MIC) [1, 6] | Minimal inhibition concentration (MIC) [2] | Minimal inhibition concentration (MIC) [3, 7] | Minimal inhibition concentration (MIC) (Pseudomonas corrugata; [8]) | Minimal inhibition concentration (MIC) [4, 9] | Minimal inhibition concentration (MIC) (Xanthomonas vesicatoria) | Minimal inhibition concentration (MIC) [1] | Minimal inhibition concentration (MIC) [3] | Minimal inhibition concentration (MIC) (Pseudomonas corrugata) | Minimal inhibition concentration (MIC) [4] |
| --- | --- | --- | --- | --- | --- | --- | --- | --- | --- | --- | --- | --- | --- | --- |
| LLIAAFKKLVKK-NH2 [SP5] | > 100 µg/mL | > 100 µg/mL | 100 µg/mL | 40 µg/mL | > 40 µg/mL | 20 µg/mL | > 40 µg/mL | > 40 µg/mL | 40 µg/mL |  |  |  |  |  |
| LLIRAAKKFIKK-NH2 [SP8] | > 100 µg/mL | > 100 µg/mL | 40 µg/mL | > 40 µg/mL | > 40 µg/mL | > 40 µg/mL | > 40 µg/mL | > 40 µg/mL | > 40 µg/mL |  |  |  |  |  |
| LLIKFLKRFIKH-NH2 [SP7] | > 100 µg/mL | > 100 µg/mL | 20 µg/mL | 5 µg/mL | 5 µg/mL | 5 µg/mL | > 40 µg/mL | 10 µg/mL | 10 µg/mL |  |  |  |  |  |
| ALAHFLKKAIKK-NH2 [SP6] | > 100 µg/mL | > 100 µg/mL | 100 µg/mL | 40 µg/mL | 10 µg/mL | > 40 µg/mL | > 40 µg/mL | 20 µg/mL | 5 µg/mL |  |  |  |  |  |
| CC[C@@H](C)[C@@H](NC(=O)[C@H](Cc1ccccc1)NC(=O)[C@H](CCCNC(=N)N)NC(=O)[C@H](CCCCN)NC(=O)[C@H](CC(C)C)NC(=O)[C@H](Cc1ccccc1)NC(=O)[C@H](CCCCN)NC(=O)[C@H](NC(=O)[C@H](CC(C)C)NC(=O)[C@@H](N)CC(C)C)[C@H](C)CC)C(=O)N[C@@H](CCCCN)C(=O)N[C@@H](Cc1c[nH]cn1)C(N)=O [SP7-D, LL/KFLKRF/KH] (H-LL[dI]KFLKRF[dI]KH-NH2; N-terminus assumed) |  |  |  |  |  |  |  |  |  | 10 µg/mL | 2,5 µg/ml | 40 µg/mL | 5 µg/mL | 2,5 µg/ml |
